This passage reports IC50 results from patent publication US20220388964A1 (HiberCell, Inc., priority 2019, published 2022).

The assay deals with GCN2 (Homo sapiens, UniProt Q9P2K8). In words: TR-FRET biochemical assay for inhibition of GCN2 (Example 108, for Examples 73-105). (In general: In TR-FRET formats the signal depends on donor and acceptor labels being close together.)
Chain of GCN2 (Q9P2K8 whole entry): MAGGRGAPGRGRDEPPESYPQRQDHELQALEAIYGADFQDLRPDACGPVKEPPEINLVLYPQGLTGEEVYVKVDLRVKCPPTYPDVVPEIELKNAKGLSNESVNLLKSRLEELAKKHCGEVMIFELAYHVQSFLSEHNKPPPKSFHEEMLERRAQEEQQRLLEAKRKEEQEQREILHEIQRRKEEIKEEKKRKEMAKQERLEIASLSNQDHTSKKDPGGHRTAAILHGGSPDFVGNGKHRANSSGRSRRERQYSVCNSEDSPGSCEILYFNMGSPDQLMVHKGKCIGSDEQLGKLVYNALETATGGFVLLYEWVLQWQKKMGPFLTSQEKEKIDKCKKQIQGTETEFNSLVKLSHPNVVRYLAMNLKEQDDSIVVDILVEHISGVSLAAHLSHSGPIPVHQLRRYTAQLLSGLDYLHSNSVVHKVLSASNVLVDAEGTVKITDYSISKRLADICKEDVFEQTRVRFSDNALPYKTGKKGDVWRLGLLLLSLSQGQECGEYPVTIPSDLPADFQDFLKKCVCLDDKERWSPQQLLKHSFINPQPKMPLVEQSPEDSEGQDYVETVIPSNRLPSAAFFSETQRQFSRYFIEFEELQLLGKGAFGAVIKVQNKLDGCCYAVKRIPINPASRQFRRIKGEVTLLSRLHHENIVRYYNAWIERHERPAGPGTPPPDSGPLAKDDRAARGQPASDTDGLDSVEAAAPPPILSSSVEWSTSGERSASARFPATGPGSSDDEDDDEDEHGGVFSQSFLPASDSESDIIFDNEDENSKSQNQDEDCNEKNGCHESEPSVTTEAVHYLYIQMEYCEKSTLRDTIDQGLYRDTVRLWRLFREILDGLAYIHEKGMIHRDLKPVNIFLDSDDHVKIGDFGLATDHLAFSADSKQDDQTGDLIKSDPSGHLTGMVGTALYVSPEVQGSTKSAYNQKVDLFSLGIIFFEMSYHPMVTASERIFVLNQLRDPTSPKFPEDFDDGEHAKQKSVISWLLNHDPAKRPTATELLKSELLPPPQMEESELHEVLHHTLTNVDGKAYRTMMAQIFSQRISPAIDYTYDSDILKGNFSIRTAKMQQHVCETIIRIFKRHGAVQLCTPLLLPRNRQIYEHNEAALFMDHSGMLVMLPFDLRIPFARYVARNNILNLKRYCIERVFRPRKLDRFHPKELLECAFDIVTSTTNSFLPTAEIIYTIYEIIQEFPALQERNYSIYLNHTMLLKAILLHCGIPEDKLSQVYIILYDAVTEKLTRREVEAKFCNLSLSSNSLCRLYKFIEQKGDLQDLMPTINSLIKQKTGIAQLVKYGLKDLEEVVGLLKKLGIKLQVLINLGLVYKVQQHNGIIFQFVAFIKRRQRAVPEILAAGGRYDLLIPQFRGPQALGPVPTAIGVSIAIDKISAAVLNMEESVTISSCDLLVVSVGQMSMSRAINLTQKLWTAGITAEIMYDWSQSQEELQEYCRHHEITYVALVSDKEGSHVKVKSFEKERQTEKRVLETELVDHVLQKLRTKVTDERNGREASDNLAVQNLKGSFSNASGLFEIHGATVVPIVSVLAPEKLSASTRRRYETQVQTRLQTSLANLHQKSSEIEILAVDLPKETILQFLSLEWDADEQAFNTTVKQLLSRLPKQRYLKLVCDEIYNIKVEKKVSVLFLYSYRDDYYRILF
As usually defined, the IC50 is the concentration that gives 50% inhibition. Low readings indicate higher potency, high ones lower potency. `COc1ncc(Cl)cc1S(=O)(=O)Nc1ccc(F)c(-c2ccc3c(C(=O)NCC(F)(F)F)n[nH]c3c2F)c1F` [Example 90, 6-[3-(5-Chloro-2-methoxypyridine-3-sulfonamido)-2,6-difluorophenyl]-7-fluoro-N-(2,2,2-trifluoroethyl)-1H-indazole-3-carboxamide] yielded an IC50 below 0.5 µM.
Regarding `COc1ncc(Cl)cc1S(=O)(=O)Nc1ccc(F)c(-c2ccc3c(C(=O)NC(C#N)C4CC4)n[nH]c3c2F)c1F` (centres unmarked) [Example 91, 6-[3-(5-Chloro-2-methoxypyridine-3-sulfonamido)-2,6-difluorophenyl]-N-[cyano(cyclopropyl)methyl]-7-fluoro-1H-indazole-3-carboxamide], the IC50 is below 0.5 µM.
The result for `COc1ncc(Cl)cc1S(=O)(=O)Nc1ccc(F)c(-c2ccc3c(C(=O)NC4CCCC(O)C4)n[nH]c3c2F)c1F` (centres unmarked) [Example 80, 6-[3-(5-Chloro-2-methoxypyridine-3-sulfonamido)-2,6-difluorophenyl]-7-fluoro-N-(3-hydroxycyclohexyl)-1H-indazole-3-carboxamide] reads below 0.5 µM; that for `COc1ncc(Cl)cc1S(=O)(=O)Nc1ccc(F)c(-c2ccc3c(C(=O)NC4CCCCC4N)n[nH]c3c2F)c1F` (centres unmarked) [Example 94, N-(2-Aminocyclohexyl)-6-[3-(5-chloro-2-methoxypyridine-3-sulfonamido)-2,6-difluorophenyl]-7-fluoro-1H-indazole-3-carboxamide], 0.5 to 2.5 µM; that for `CNC(=O)c1n[nH]c2c(F)c(-c3c(F)ccc(NS(=O)(=O)C4CCCN(C)C4)c3F)ccc12` (centres unmarked) [Example 77, 6-[2,6-difluoro-3-(1-methylpiperidine-3-sulfonamido)phenyl]-7-fluoro-N-methyl-1H-indazole-3-carboxamide], 2.5 to 10 µM.
The result for `COc1ncc(Cl)cc1S(=O)(=O)Nc1ccc(F)c(-c2ccc3c(C(=O)NCCN4CCCC4)n[nH]c3c2F)c1F` [Example 83, 6-[3-(5-chloro-2-methoxypyridine-3-sulfonamido)-2,6-difluorophenyl]-7-fluoro-N-[2-(pyrrolidin-1-yl)ethyl]-1H-indazole-3-carboxamide] reads below 0.5 µM; that for `C#CC(C)(C)NC(=O)c1n[nH]c2c(F)c(-c3c(F)ccc(NS(=O)(=O)c4cc(Cl)cnc4OC)c3F)ccc12` [Example 89, 6-[3-(5-Chloro-2-methoxypyridine-3-sulfonamido)-2,6-difluorophenyl]-7-fluoro-N-(2-methylbut-3-yn-2-yl)-1H-indazole-3-carboxamide], below 0.5 µM; that for `COc1ncc(Cl)cc1S(=O)(=O)Nc1ccc(F)c(-c2ccc3c(C(=O)NCCN4CCOCC4)n[nH]c3c2F)c1F` [Example 86, 6-[3-(5-Chloro-2-methoxypyridine-3-sulfonamido)-2,6-difluorophenyl]-7-fluoro-N-[2-(morpholin-4-yl)ethyl]-1H-indazole-3-carboxamide], below 0.5 µM.
With `COc1ncc(Cl)cc1S(=O)(=O)Nc1ccc(F)c(-c2ccc3c(C(=O)NCCN4CCCC4=O)n[nH]c3c2F)c1F` [Example 99, 6-[3-(5-Chloro-2-methoxypyridine-3-sulfonamido)-2,6-difluorophenyl]-7-fluoro-N-[2-(2-oxopyrrolidin-1-yl)ethyl]-1H-indazole-3-carboxamide], the IC50 was below 0.5 µM.
The result for `COc1ncc(Cl)cc1S(=O)(=O)Nc1ccc(F)c(-c2ccc3c(C(=O)NCC4CCCNC4)n[nH]c3c2F)c1F` (centres unmarked) [Example 93, 6-[3-(5-Chloro-2-methoxypyridine-3-sulfonamido)-2,6-difluorophenyl]-7-fluoro-N-(piperidin-3-ylmethyl)-1H-indazole-3-carboxamide] reads below 0.5 µM; that for `CNC(=O)c1n[nH]c2c(F)c(-c3c(F)ccc(NS(=O)(=O)CC4CCC(O)C4)c3F)ccc12` (mixture of isomers) [Example 78, 6-[2,6-difluoro-3-[(3-hydroxycyclopentyl)methanesulfonamido]phenyl]-7-fluoro-N-methyl-1H-indazole-3-carboxamide], 2.5 to 10 µM; that for `COc1ncc(Cl)cc1S(=O)(=O)Nc1ccc(F)c(-c2ccc3c(C(=O)NC4CCCC4)n[nH]c3c2F)c1F` [Example 79, 6-[3-(5-Chloro-2-methoxypyridine-3-sulfonamido)-2,6-difluorophenyl]-N-cyclopentyl-7-fluoro-1H-indazole-3-carboxamide], below 0.5 µM.
As for `COc1ncc(Cl)cc1S(=O)(=O)Nc1ccc(F)c(-c2ccc3c(C(=O)NCC4CCN(C)C4)n[nH]c3c2F)c1F` (centres unmarked) [Example 100, 6-[3-(5-Chloro-2-methoxypyridine-3-sulfonamido)-2,6-difluorophenyl]-7-fluoro-N-[(1-methylpyrrolidin-3-yl)methyl]-1H-indazole-3-carboxamide], the figure is below 0.5 µM; as for `CNC(=O)c1n[nH]c2c(F)c(-c3c(F)ccc(NS(=O)(=O)CC4CCCC4)c3F)ccc12` [Example 74, 6-[3-(cyclopentylmethanesulfonamido)-2,6-difluorophenyl]-7-fluoro-N-methyl-1H-indazole-3-carboxamide], 2.5 to 10 µM; as for `COc1ncc(Cl)cc1S(=O)(=O)Nc1ccc(F)c(-c2ccc3c(C(=O)NC4CCC(O)C4)n[nH]c3c2F)c1F` (centres unmarked) [Example 97, 6-[3-(5-Chloro-2-methoxypyridine-3-sulfonamido)-2,6-difluorophenyl]-7-fluoro-N-(3-hydroxycyclopentyl)-1H-indazole-3-carboxamide], below 0.5 µM.
The result for `CNC(=O)c1n[nH]c2c(F)c(-c3c(F)ccc(NS(=O)(=O)c4cc(F)cc5c4CCC5O)c3F)ccc12` (centres unmarked) [Example 76, 6-[2,6-Difluoro-3-(6-fluoro-1-hydroxy-2,3-dihydro-1H-indene-4-sulfonamido)phenyl]-7-fluoro-N-methyl-1H-indazole-3-carboxamide] reads below 0.5 µM.
`COc1ncc(Cl)cc1S(=O)(=O)Nc1ccc(F)c(-c2ccc3c(C(=O)NC(C)CN)n[nH]c3c2F)c1F` (centres unmarked) [Example 95, N-(1-Aminopropan-2-yl)-6-[3-(5-chloro-2-methoxypyridine-3-sulfonamido)-2,6-difluorophenyl]-7-fluoro-1H-indazole-3-carboxamide] had an IC50 below 0.5 µM.
The result for `C#CCNC(=O)c1n[nH]c2c(F)c(-c3c(F)ccc(NS(=O)(=O)c4cc(Cl)cnc4OC)c3F)ccc12` [Example 92, 6-[3-(5-Chloro-2-methoxypyridine-3-sulfonamido)-2,6-difluorophenyl]-7-fluoro-N-(prop-2-yn-1-yl)-1H-indazole-3-carboxamide] reads below 0.5 µM.
As for `COc1ncc(Cl)cc1S(=O)(=O)Nc1ccc(F)c(-c2ccc3c(C(=O)NCC4CC4)n[nH]c3c2F)c1F` [Example 85, 6-[3-(5-Chloro-2-methoxypyridine-3-sulfonamido)-2,6-difluorophenyl]-N-(cyclopropylmethyl)-7-fluoro-1H-indazole-3-carboxamide], the figure is below 0.5 µM; as for `COc1ncc(Cl)cc1S(=O)(=O)Nc1ccc(F)c(-c2ccc3c(C(=O)NC4CCCC4O)n[nH]c3c2F)c1F` (centres unmarked) [Example 87, 6-[3-(5-Chloro-2-methoxypyridine-3-sulfonamido)-2,6-difluorophenyl]-7-fluoro-N-(2-hydroxycyclopentyl)-1H-indazole-3-carboxamide], below 0.5 µM.
